Reference: ChEMBL document CHEMBL1142574, “Identification of radical scavenging compounds in Rhaponticum carthamoides by means of LC-DAD-SPE-NMR” (J Nat Prod, 2005)

Tests used:
[1] = test system: Radical scavenging activity; assay: Antioxidant activity assessed as DPPH radical scavenging activity studied at DPPH to compound ratio of 2; assay type: functional; details: dose or concentration not given here
[2] = test system: Radical scavenging activity; assay: Antioxidant activity assessed as DPPH radical scavenging activity studied at DPPH to compound ratio of 5; assay type: functional; details: dose or concentration not given here

With `CC(=O)OC[C@H]1O[C@@H](Oc2cc3oc(-c4ccc(O)cc4)c(O)c(=O)c3c(O)c2O)[C@H](O)[C@@H](O)[C@@H]1O` the inhibition [1] was 75% and the inhibition [2] was 36%.
With `O=C(/C=C/c1ccc(O)c(O)c1)O[C@H](Cc1ccc(O)c(O)c1)C(=O)O` the inhibition [1] was 98% and the inhibition [2] was 89%.
Compound `Cc1c(C)c2c(c(C)c1O)CCC(C)(C(=O)O)O2` (stereo unspecified) has an inhibition [1] of 98% and an inhibition [2] of 79%.
